Common to all, as to format: physicochemical
Data set [1] is described as follows: Moisture absorption and dehumidification tests at defined relative humidities (condition observed, weight change). To be noted: two days or more. The protocol:
After 40 mg of the amorphous form of maleic acid salt prepared in Example 1 was thinly coated onto a beaker, the sample was moisture-absorbed by placing it at each relative humidity of 33%, 57%, 64%, 75% and 93% for two days or more and its condition was observed. In order to obtain each relative humidity above, as shown in the table below, saturated aqueous solutions of salts were prepared and then placed in a desiccator, and the desiccator was sealed.
100 mg of the crystalline form of maleic acid salt prepared in Example 2 was thinly coated onto a beaker and then placed at each relative humidity of 33%, 57%, 64%, 75% and 93% for two days or more to be moisture-absorbed. Thereafter, the weight change of the sample was measured while its condition is observed. In order to obtain each relative humidity above, as shown in Table 2 of Test example 2, saturated aqueous solutions of salts were prepared and then placed in a desiccator and the desiccator was sealed.
The method as described in Test example 2 was applied to the amorphous diHCl salt prepared in Comparative Example 1. From observing its change at each relative humidity, it is shown that the salt was deliquesced at the relative humidity of 75%. […] Therefore, it can be shown that the maleic acid salt is the most excellent among various acid salts.

Data set [2] in a line: Test of the dissolution rate per unit area (0.5 cm^2 disk in buffer solutions). As to the method: Some compounds may have difficulty in being absorbed due to a low dissolution rate. To confirm the above difficulty beforehand, a disk having the area of 0.5 cm^2 is prepared, and then its dissolution rate in various media is measured. The dissolution amount over time is measured and its value is divided by the disk's area. The value is the dissolution rate per unit area. If the value is usually 1 mg/min/cm^2 or more, it can be said that there is no phenomenon for the drug not to be absorbed due to the low dissolution rate. If the value is 0.1 mg/min/cm^2 or less, it can be said that the drug has a problem of absorption due to the low dissolution rate (see, Howard C. Ansel, Nicholas G. Popovich and Loyd V. Allen, 1995, Pharmaceutical Dosage Forms and Drug Delivery Systems, 6th ed., Williams & Wilkins, pp.109 and Jens T. Carstensen, 1996, Modern Pharmaceutics: Gilbert S. Banker and Christopher T. Rhodes (Ed.), Drugs and the pharmaceutical sciences, Vol. 72, 3rd ed., Dekker, pp. 233.). Thus, measuring the dissolution rate per unit area has a very significant meaning in predicting the absorption problem that may occur in in vivo test of the drug later. Therefore, a compound having an excellent dissolution rate per unit area should be selected as a candidate for the drug development.
200 mg of the crystalline form of maleic acid salt prepared in Example 2 was put into a mold. By applying pressure on the mold, a disk having the area of 0.5 cm^2 was prepared and the disk was added to each of the buffer solutions (600 ml) of pH 3.8 and 7.4 to conduct the dissolution test. A portion of the solution was periodically taken and its concentration was measured to determine the dissolution rate per unit area.
The same test as Test example 5 was conducted on the free compound of Formula 1. The dissolution rate per unit area of the free compound was 1.3 mg/min/cm^2 at pH 3.8 and 0.3 mg/min/cm^2 at pH 7.4.

The nature of data set [3]: Powder X-ray diffraction test during moisture absorption and dehumidification. To be noted: vacuum dried, then relative humidity 33%, 53%, 64%, 75% and 93%, two days or more each. As to the method:
40 mg of the crystalline form of maleic acid salt prepared in Example 2 was thinly coated onto a sample holder and then the powder X-ray diffraction test was conducted according to the following conditions. By using Rigaku Geigeflex D/max-III C apparatus, the test was conducted at 35 kV, 20 mA.
40 mg of the maleic acid salt prepared in Example 2 was thinly coated onto a sample holder. Immediately after the sample was vacuum dried in the presence of P2O5, and after the sample was placed for moisture absorption at each relative humidity of 33%, 53%, 64%, 75% and 93% for two days or more, respectively, the powder X-ray diffraction test of the sample was conducted according to the conditions represented in the above Test example 1 to observe change of the crystalline form during moisture absorption. While lowering the relative humidity, the same test was repeated to observe change of the crystalline form during dehumidification. In order to obtain each relative humidity above, as shown in Table 2 of Test example 2, saturated aqueous solutions of salts were prepared and then placed in a desiccator and the desiccator was sealed.

Structures can show the parent of a compound that is named as a salt.

For `N=C(N)c1ccc(CNC(=O)[C@@H]2CCCN2C(=O)[C@H](NCC(=O)O)C(c2ccccc2)c2ccccc2)s1.O=C(O)/C=C\C(=O)O` [amorphous form of maleic acid salt, maleic acid salt of (2S)-N-{5-[amino(imino)methyl]-2-thienyl}methyl-1-{(2R)-2-[(carboxymethyl)amino]-3,3-diphenylpropanoyl}-2-pyrrolidine carboxamide], the “condition observed after moisture absorption” value (shortened to “condition observed”) is reported as “hardened” in data set [1] (relative humidity of 75%) and “deliquesced” in data set [1] (relative humidity of 93%).
Regarding `N=C(N)c1ccc(CNC(=O)[C@@H]2CCCN2C(=O)[C@H](NCC(=O)O)C(c2ccccc2)c2ccccc2)s1.O=C(O)/C=C\C(=O)O` [crystalline form of maleic acid salt, maleic acid salt of (2S)-N-{5-[amino(imino)methyl]-2-thienyl}methyl-1-{(2R)-2-[(carboxymethyl)amino]-3,3-diphenylpropanoyl}-2-pyrrolidine carboxamide], the “weight increase on moisture absorption based on initial weight” value in data set [1] (relative humidity of 33%) is 1.4%; in data set [1] (relative humidity of 57%), 3.0%; in data set [1] (relative humidity of 64%) it was 4.3%; in data set [1] (relative humidity of 75%), 4.1%; in data set [1] (relative humidity of 93%) it was 6.7%. Besides, the “condition observed” value in data set [1] (relative humidity of 93%) is “not deliquesced”. Further, the “dissolution rate per unit area” value in data set [2] (buffer solution pH 3.8, 600 ml) turned out to be 11.8 mg/min/cm^2; in data set [2] (buffer solution pH 7.4, 600 ml), 1.7 mg/min/cm^2. In addition, the “change of the powder X-ray diffraction diagram (crystalline form) during moisture absorption and dehumidification” value in data set [3] is “did not show any change”.
For `N=C(N)c1ccc(CNC(=O)[C@@H]2CCCN2C(=O)[C@H](NCC(=O)O)C(c2ccccc2)c2ccccc2)s1` [amorphous diHCl salt], in data set [1] (relative humidity of 75%), the “condition observed” value is reported as “deliquesced”.
Turning to `N=C(N)c1ccc(CNC(=O)[C@@H]2CCCN2C(=O)[C@H](NCC(=O)O)C(c2ccccc2)c2ccccc2)s1` [free compound, (2S)-N-{5-[amino(imino)methyl]-2-thienyl}methyl-1-{(2R)-2-[(carboxymethyl)amino]-3,3-diphenylpropanoyl}-2-pyrrolidine carboxamide], the “dissolution rate per unit area” value in data set [2] (buffer solution pH 3.8, 600 ml) was 1.3 mg/min/cm^2; in data set [2] (buffer solution pH 7.4, 600 ml) it was 0.3 mg/min/cm^2.

The values above are taken from patent US20050154229A1, “Maleic acid salt of(2s)-n-{5-[amino(imino)methy]-2-thienyl}methyl-1-{(2r)-2-[(carboxymethyl)amino]-3,3-diphenylpropanoyl}-2-pyrrolidine carboxamide and a process for” (priority 2002, published 2005).
